Measurements: PubChem BioAssay AID1188 (EPA DSSTox, 2008)
Activity calls are given as the source filed them.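 How the source made its calls: active means a concentration killing half the fathead minnows in the acute test was determined; inconclusive means some fish died but not half at top dose; inactive means no fish died even at top dose.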

test system: Fathead minnow (Pimephales promelas) acute toxicity, lethality; test: DSSTox (EPAFHM) EPA Fathead Minnow Acute Toxicity
From the text: The EPA Fathead Minnow Acute Toxicity database was generated by the U.S. EPA Mid-Continental Ecology Division (MED) for the purpose of developing an expert system to predict acute toxicity from chemical structure based on mode of action considerations. […] A second valuable aspect of this database, from a QSAR modeling perspective, is the inclusion of general mode-of-action (MOA) classifications of acute toxicity response for individual chemicals derived from study results. MOA assignments are biologically based classifications, allowing definition of chemical similarity based upon biological activity instead of organic chemistry functional class as most commonly employed in QSAR study. MOA classifications should strengthen the scientific basis for construction of individual QSARs. However, it is cautioned that the broad MOA categorizations should not be construed to represent a single molecular mechanism; for example, CNS seizure agents and respiratory inhibitors are known to act through a variety of receptors. The EPA Fathead Minnow database and results have been used by EPA MED to build components of the ASTER prediction system, which incorporates MOA-based QSARs for the prediction of aquatic toxicity of environmental and industrial chemicals. Briefly, MOA classifications for individual chemicals, derived from experiments and provided in the EPA Fathead Minnow database, were used to derive substructural rules for assigning a new chemical to an MOA category based solely on chemical structure. Once a new chemical is assigned to an MOA category on this basis, the logP-based QSAR for that MOA category is applied.
The DSSTox EPAFHM database (available from the DSSTox Source URL) includes information pertaining to organic chemical class assignments (ChemClass_FHM), acute toxicity in fathead minnow (LC50_mg), dose-response assessments (LC50_Ratio, ExcessToxicityIndex), behavioral assessments (FishBehaviorTest), joint toxicity MOA evaluations of mixtures (MOA_MixtureTest), and additional MOA evaluation of fish acute toxicity syndrome (FishAcuteToxSyndrome) in rainbow trout. All of these indicators, to the extent available, were considered in the determination of MOA and, additionally, were used to determine a level of confidence in the MOA assignment for each chemical (MOA_Confidence). […] Activity Score is mapping of LOG10 (1/LC50_mmol) activity values spanning activity range [MIN, MAX] onto Integer 1-100 Activity range, where 100 is highest potency and 1 is lowest. If Activity Outcome is "active": Activity Score = 100 * INTEGER[(log10(1/ LC50_mmol) - MIN)/([…])].

| SMILES | Potency | outcome |
| --- | --- | --- |
| Nc1ccc(Cl)c(Cl)c1 | 46.7 µM |  |
| CCCCCO | 5360 µM |  |
| CCCCCCOC(C)=O | 30.5 µM |  |
| COc1cccc(C=O)c1O | 15.8 µM |  |
| CCc1c(Br)c(Br)c(Br)c(Br)c1Br |  | inactive; moa not determined either due to lack of toxicity at saturation or late test res |
| CC(=O)CCC=C(C)C | 679 µM |  |
| O=Cc1cc(O)ccc1[N+](=O)[O-] | 251 µM |  |
| COc1ccc(OC)cc1 | 847 µM |  |
| CCN1C(=O)CC(=O)N(CC)C1=S | 22500 µM |  |
| CC1(C)[C@H]2CC[C@]1(C)[C@H](O)C2 | 410 µM |  |
| CCCOC(C)=O | 587 µM |  |
| C1CCCCC1 | 53.8 µM |  |
| CCCCCC(C)=O | 1150 µM |  |
| Cc1cc2nc3c(=O)[nH]c(=O)nc-3n(C[C@H](O)[C@H](O)[C@H](O)CO)c2cc1C |  | inactive; moa not determined either due to lack of toxicity at saturation or late test res |
| CC(=O)c1ccccc1 | 1350 µM |  |
| O=Cc1ccccc1[N+](=O)[O-] | 95.3 µM |  |
| CCOC(=O)CC(SP(=S)(OC)OC)C(=O)OCC (stereo not drawn) | 42.7 µM |  |
| CCCCCCCCC#N | 37.7 µM |  |
| N#Cc1cccc(C(F)(F)F)c1 | 279 µM |  |
| Cc1cccc(OP(=O)(Oc2cccc(C)c2C)Oc2cccc(C)c2C)c1C |  | inactive; moa not determined either due to lack of toxicity at saturation or late test res |
| C=CC(=O)OCCO | 41.4 µM |  |

| SMILES | Potency | outcome |
| --- | --- | --- |
| C=CCO | 5.51 µM |  |
| ClCCN1CCCC1 | 900 µM |  |
| CCOC(=O)CC(=O)OCC | 91.8 µM |  |
| CC(C)=O | 123000 µM |  |
| COc1cccc(O)c1 | 596 µM |  |
| CCCCCC(=O)OCC | 61.7 µM |  |
| CCCBr | 547 µM |  |
| O=Cc1ccc(Cl)cc1 | 15.6 µM |  |
| CO |  | active; baseline narcosis |
| CCN(CC)CCO | 15200 µM |  |
| C1CCC(C2CCCCC2)CC1 |  | inactive; moa not determined either due to lack of toxicity at saturation or late test res |
| C=CC(=O)OCC(C)O (stereo not drawn) | 26 µM |  |
| Clc1cccc(Cl)c1C(Cl)Cl | 4.22 µM |  |
| C/C=C/C=C/C | 243 µM |  |
| CCCCC=O | 150 µM |  |
| CCC(C)=O | 44700 µM |  |
| Cc1ccc(OP(=O)(Oc2ccc(C)c(C)c2)Oc2ccc(C)c(C)c2)cc1C |  | inactive; moa not determined either due to lack of toxicity at saturation or late test res |
| COc1ccc(OC)c(C(=O)CBr)c1 | 2.55 µM |  |
| CC(C)(C)SSC(C)(C)C | 7.68 µM |  |
| CC(N)CN (stereo not drawn) | 13600 µM |  |
| Clc1nc(Cl)c(Cl)c(Cl)c1Cl | 1.87 µM |  |

| SMILES | Potency | outcome |
| --- | --- | --- |
| CCCCCCCCO | 104 µM |  |
| CC(C)(C)c1ccc(C(N)=O)cc1 | 180 µM |  |
| CC(C)c1ccccc1 | 52.6 µM |  |
| C=C(C)C(=O)OCC1CCCO1 (stereo not drawn) | 204 µM |  |
| CCCSCCC | 184 µM |  |
| Oc1ccc(Cl)cc1Cc1cc(Cl)ccc1O | 1.15 µM |  |
| O[C@@H]1C[C@H]2CC[C@@H]1C2 | 2030 µM |  |
| CCCCOC(=O)c1cccc(C(=O)OCCCC)c1 | 3.23 µM |  |
| BrC(Br)c1ccccc1C(Br)Br | 1.04 µM |  |
| c1ccc2c(c1)oc1ccccc12 | 8.92 µM |  |
| Clc1ccccc1 | 150 µM |  |
| C=CCC1(C(C)CCC)C(=O)N=C(O)NC1=O (stereo not drawn) | 90.7 µM |  |
| CC(=O)C(C)C | 10000 µM |  |
| CCCCCN | 2030 µM |  |
| NC(=O)c1ccccc1N | 2900 µM |  |
| Cl/C=C/CCl | 2.15 µM |  |
| Cc1ccc(S(=O)(=O)n2ccnc2)cc1 | 188 µM |  |
| CCc1ccccn1 | 3860 µM |  |
| c1ccc(SSc2ccccc2)cc1 | 0.504 µM |  |
| CCCCCCCCC(=O)O | 657 µM |  |
| c1ccc(-c2cccc(-c3ccccc3)n2)cc1 | 0.908 µM |  |
